Series [1] relates to Rattus norvegicus. The series can be described thus: Nephrotoxic potential was tested in spontaneously hypertensive rats by administering 40 mg/kg/day intraperitoneally for 5 days. It counts as functional. The conditions noted are these: route intraperitoneal.
Series [2] relates to Mus musculus. As to the kind of experiment: Immunosuppressive activity was determined by ex vivo murine-based model of immunosuppression, compound was administered perorally in mouse. It counts as functional. The conditions noted are these: po.
The nature of series [3]: Therapeutic index was determined as mouse hypothermia ED50/murine ex vivo ED50. The conditions noted are these: read-out: Therapeutic index.
For series [4], the system named is Mus musculus. The series can be described thus: Immunosuppressive activity was determined by ex vivo murine-based model of immunosuppression, compound was administered intravenously in mouse. It counts as functional. The conditions noted are these: iv.
Series [5] deals with Mus musculus. The series can be described thus: Neurotoxic activity was determined by measuring compound-induced hypothermia in BALB/c mice, after administering intravenously in mouse. It counts as functional. The conditions noted are these: iv.
Series [6] concerns Rattus norvegicus. The series can be described thus: Nephrotoxic potential was tested in spontaneously hypertensive rats by administering 20 mg/kg/day intraperitoneally for 5 days. It counts as functional. The conditions noted are these: route intraperitoneal.
In series [7] the test system is Rattus norvegicus. The series can be described thus: Nephrotoxic potential was tested in spontaneously hypertensive rats by administering 0 mg/kg/day intraperitoneally for 5 days. The conditions noted are these: route intraperitoneal. It counts as functional.
Series [8] has as its system Rattus norvegicus. As to the kind of experiment: Nephrotoxic potential was tested in spontaneously hypertensive rats by administering 10 mg/kg/day intraperitoneally for 5 days. It counts as functional. The conditions noted are these: route intraperitoneal.
For series [9], the target named is Peptidyl-prolyl cis-trans isomerase FKBP1A (Homo sapiens, UniProt P62942). The series can be described thus: Binding affinity for FK506 binding protein 12 using [3H]-dihydro FK-506 radioligand was determined.

Structures are written as SMILES.

Chain of Peptidyl-prolyl cis-trans isomerase FKBP1A (P62942 whole entry): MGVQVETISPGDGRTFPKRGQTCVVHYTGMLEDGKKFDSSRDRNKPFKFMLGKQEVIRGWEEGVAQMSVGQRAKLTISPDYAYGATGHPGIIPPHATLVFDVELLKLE

By ED50 is commonly meant the dose that gives a 50% effect, or the effect in half of the subjects. Low readings indicate an effect at a small dose, high ones a need for a large dose. As to `C=CC[C@@H]1/C=C(\C)C[C@H](C)C[C@H](OC)[C@H]2O[C@@](O)(C(=O)C(=O)N3CCCC[C@H]3C(=O)O[C@H](/C(C)=C/[C@@H]3CC[C@@H](O)[C@H](OC)C3)[C@H](C)[C@@H](O)CC1=O)[C@H](C)C[C@@H]2OC` [TACROLIMUS ANHYDROUS], the BUN was 76 mg/dL in the series with Rattus norvegicus [1], 43 mg/dL in the series on Rattus norvegicus [6], 20 mg/dL in the series with Rattus norvegicus [7] and 22 mg/dL with Rattus norvegicus [8]. In addition, the ED50 in the series on Mus musculus [2] was found to be 2.6 mg/kg; in the series with Mus musculus [4], 0.24 mg/kg; in the series on Mus musculus [5], 3.5 mg/kg. In addition, the selectivity ratio in series [3] was 15.

As usually defined, the EC50 is the concentration needed to bring the measured effect to its halfway point. In turn, `CC[C@@H]1/C=C(\C)C[C@H](C)C[C@H](OC)[C@H]2O[C@@](O)(C(=O)C(=O)N3CCCC[C@H]3C(=O)O[C@H](/C(C)=C/[C@@H]3CC[C@@H](OCc4nc(-c5ccccc5)c[nH]4)[C@H](OC)C3)[C@H](C)[C@@H](O)CC1=O)[C@H](C)C[C@@H]2OC` yielded an EC50 in series [9] of 22 nM.

In series [9], `CC[C@@H]1/C=C(\C)C[C@H](C)C[C@H](OC)[C@H]2O[C@@](O)(C(=O)C(=O)N3CCCC[C@H]3C(=O)O[C@H](/C(C)=C/[C@@H]3CC[C@@H](OCc4nccn4Cc4ccccc4)[C@H](OC)C3)[C@H](C)[C@@H](O)CC1=O)[C@H](C)C[C@@H]2OC` showed an EC50 of 7.4 nM.

In series [9], `CC[C@@H]1/C=C(\C)C[C@H](C)C[C@H](OC)[C@H]2O[C@@](O)(C(=O)C(=O)N3CCCC[C@H]3C(=O)O[C@H](/C(C)=C/[C@@H]3CC[C@@H](OCOCc4ccccc4)[C@H](OC)C3)[C@H](C)[C@@H](O)CC1=O)[C@H](C)C[C@@H]2OC` returned an EC50 of 12 nM.

In series [9], `CC[C@@H]1/C=C(\C)C[C@H](C)C[C@H](OC)[C@H]2O[C@@](O)(C(=O)C(=O)N3CCCC[C@H]3C(=O)O[C@H](/C(C)=C/[C@@H]3CC[C@@H](OC/C=C/c4ccccc4)[C@H](OC)C3)[C@H](C)[C@@H](O)CC1=O)[C@H](C)C[C@@H]2OC` came in with an EC50 of 30 nM.

Source of the values: ChEMBL document CHEMBL1131393, “C32-O-imidazol-2-yl-methyl ether derivatives of the immunosuppressant ascomycin with improved therapeutic potential” (Bioorg Med Chem Lett, 1998).
